Tests used:
[1] = target: T1, hERG (potassium voltage-gated channel subfamily H member 2) (Homo sapiens, UniProt Q12809); assay: hERG channel binding assay ([3H] Dofetilide); conditions: human, HEK-293 cells (hERG channel binding assay), probe [3H] Dofetilide; 10 μM, [3H] Dofetilide, HEK-293 cells, 2 repetitions; read-out: hERG inhibition (% inhibition of the binding of a ligand specific for the target)
T1 construct: expressed in transfected cells; host or cells: HEK-293
Experimental: (§1) For the hERG channel binding assay, compound binding was calculated as % inhibition of the binding of a radioactively labeled ligand that is specific for the target (i.e., [3H] Dofetilide). HEK-293 cells (human embryonic kidney cells) were used for these binding assays. The compounds were tested at a concentration of 10 μM and 2 repetitions were conducted for each compound.

[2] = Intraperitoneal glucose tolerance test and plasma insulin (in vivo); parameters: species or system mice; conditions: for effect on blood glucose concentration compared to control: glucose tolerance test in vivo
Experimental: (A) n=8 mice for control and n=7 mice for Kom56, (D) n=8 mice each. (B,E) Blood glucose concentrations of mice during i.p. glucose tolerance tests with 1.5 mg/g BW glucose with or without i.p. compound administration. n=8 mice each. (C,F) AUC0-120min calculation of blood glucose concentrations of B,E. Statistical testing: (A,D) two-way ANOVA followed by Sidak's multiple comparison test. (B,C,E,F) unpaired two-sided Student's t-test. All values are shown with mean±SEM, except for glucose tolerance tests (B,E), in which all values are mean±SD.
Further, glucose tolerance tests (in vivo) were performed, if the corresponding in vitro assays were “positive”.
Glucose tolerance tests for the compounds were performed like in paragraph [0209].

[3] = target: T2, potassium voltage-gated channel subfamily H member 2 (hERG) (Homo sapiens, UniProt Q12809); assay: hERG channel binding assay ([3H] Dofetilide); conditions: SafetyScreen44 Panel, test concentration 1.0 10^−5 M
T2 construct: expressed in transfected cells; host or cells: HEK-293
T2 sequence (Q12809 whole entry): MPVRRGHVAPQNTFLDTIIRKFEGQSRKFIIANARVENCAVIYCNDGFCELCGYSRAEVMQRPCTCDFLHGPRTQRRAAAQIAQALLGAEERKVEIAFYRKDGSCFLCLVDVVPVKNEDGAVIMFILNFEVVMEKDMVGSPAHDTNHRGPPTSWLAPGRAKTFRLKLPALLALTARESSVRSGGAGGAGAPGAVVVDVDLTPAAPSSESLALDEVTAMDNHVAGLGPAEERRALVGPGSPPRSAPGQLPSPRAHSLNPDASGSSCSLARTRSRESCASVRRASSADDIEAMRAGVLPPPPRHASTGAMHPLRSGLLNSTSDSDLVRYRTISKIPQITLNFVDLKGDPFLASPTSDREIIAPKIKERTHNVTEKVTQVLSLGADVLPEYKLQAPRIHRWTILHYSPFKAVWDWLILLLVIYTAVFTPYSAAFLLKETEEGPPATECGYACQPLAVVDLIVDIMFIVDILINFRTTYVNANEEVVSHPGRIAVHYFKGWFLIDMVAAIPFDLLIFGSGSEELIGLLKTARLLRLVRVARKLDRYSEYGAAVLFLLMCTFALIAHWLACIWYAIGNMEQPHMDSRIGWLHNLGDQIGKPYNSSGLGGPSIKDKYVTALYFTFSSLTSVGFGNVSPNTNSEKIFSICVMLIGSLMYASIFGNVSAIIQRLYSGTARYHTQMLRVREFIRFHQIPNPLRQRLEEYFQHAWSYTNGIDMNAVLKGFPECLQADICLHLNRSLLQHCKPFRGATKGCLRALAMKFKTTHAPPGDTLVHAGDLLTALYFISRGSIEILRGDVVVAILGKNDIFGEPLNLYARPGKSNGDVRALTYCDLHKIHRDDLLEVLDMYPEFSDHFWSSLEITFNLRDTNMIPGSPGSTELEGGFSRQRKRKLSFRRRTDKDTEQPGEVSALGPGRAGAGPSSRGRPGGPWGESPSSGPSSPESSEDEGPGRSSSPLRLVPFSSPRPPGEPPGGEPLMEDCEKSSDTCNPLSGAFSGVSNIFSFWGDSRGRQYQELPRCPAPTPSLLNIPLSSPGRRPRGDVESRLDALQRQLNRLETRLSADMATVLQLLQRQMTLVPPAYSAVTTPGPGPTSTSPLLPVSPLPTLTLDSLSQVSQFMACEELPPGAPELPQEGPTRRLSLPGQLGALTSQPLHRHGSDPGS
Experimental: as §1

μ-opioid (MOP) receptor = μ-opioid (MOP) receptor (Homo sapiens, UniProt P35372); assay: MOP receptor inhibition, SafetyScreen44 Panel; format: binding; conditions: test concentration 1.0 10^−5 M
Sequence of μ-opioid (MOP) receptor (P35372 whole entry): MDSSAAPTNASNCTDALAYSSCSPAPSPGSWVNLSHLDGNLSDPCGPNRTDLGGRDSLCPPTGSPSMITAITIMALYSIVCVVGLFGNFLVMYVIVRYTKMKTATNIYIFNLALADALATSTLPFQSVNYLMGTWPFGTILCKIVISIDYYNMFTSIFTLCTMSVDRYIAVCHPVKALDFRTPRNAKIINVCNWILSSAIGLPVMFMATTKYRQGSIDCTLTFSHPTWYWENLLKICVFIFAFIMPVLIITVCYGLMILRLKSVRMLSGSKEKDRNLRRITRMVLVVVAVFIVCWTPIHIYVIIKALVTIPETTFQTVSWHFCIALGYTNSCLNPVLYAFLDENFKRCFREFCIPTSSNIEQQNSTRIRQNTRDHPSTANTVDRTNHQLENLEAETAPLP

mouse pancreatic islets [4] = assay: Insulin secretion assay on isolated pancreatic islets (in vitro); format: cell-based; conditions: low (2 mM) and high glucose (20 mM), FIG. 1
Experimental: Statistical testing: two-way ANOVA followed by Sidak's multiple comparison test. All values are shown with mean±SEM.
Further, insulin secretion assays (in vitro) were performed.
Insulin secretion assays for the compounds were performed like in paragraph [0208].

[5] = Oral glucose tolerance test and plasma insulin (in vivo); conditions: mice, FIG. 3
Experimental: (B) Blood glucose concentrations of mice during oral glucose tolerance test with 1.5 mg/g BW glucose with or without p.o. compound administration. n=7 mice for control and n=8 mice for Kom56. (C) AUC0-120min calculation of blood glucose concentrations of B. Statistical testing: (A) two-way ANOVA followed by Sidak's multiple comparison test. (B,C) unpaired two-sided Student's t-test. All values are shown with mean±SEM, except for glucose tolerance test (B), in which all values are mean±SD.

[6] = Von Frey monofilament paw withdrawal test; format: in vivo; conditions: mice, i.p. administration, paw withdrawal thresholds versus PBS, FIG. 5
Text: (A) Force that is needed to reach a 50% threshold, and (B) force that is needed to reach a 75% threshold in paw withdrawal. n=6 mice each. Statistical testing: (A,B) unpaired two-sided Student's t-test. All values are shown with mean±SEM.

mouse pancreatic islets [7] = assay: Islet cell death induced by oxidative stress (H2O2), flow cytometry; format: cell-based; conditions: 150 μM H2O2, 1 and 0.1 μM Kom56, 24 h, FIG. 6
Experimental: (A) Healthy control, (B) pancreatic islets incubated with 150 μM H2O2, (C) 150 μM H2O2 plus 1 μM Kom56, and (D) 150 μM H2O2 plus 0.1 μM Kom56. Analyzed by flow cytometry. Pancreatic islets were dissociated using trypsin and stained with Fixable Viability Stain 660 (FVS660). FVS660+=dead cells, FVS660-=living cells, values are shown in %.

mouse pancreatic islets [8] = assay: Streptozotocin-induced islet cell death; format: cell-based; conditions: 2 mM streptozotocin, 1 μM Kom56, 24 h, FIG. 7
Text: Blue (Hoechst), nuclei; red (ethidium homodimer1), dead cells; green (calcein), viable cells. (B) Area of dead cells in mouse islets treated as described in A. n=4 islet batches each with 11-14 islets per batch for each group. Statistical testing: (B) one-way ANOVA followed by Tukey's multiple comparison test. All values are shown with mean±SEM. (A) Scale bars, 50 μm.

[9] = system: SafetyScreen44™ Panel with all 44 targets; assay: SafetyScreen44 Panel toxicological test; conditions: test concentration 1.0 10^−5 M
Experimental: Inhibition of potassium voltage-gated channel subfamily H member 2 (hERG) of the compounds was measured as in the SafetyScreen44™ Panel (see Example 3). The hERG channel binding assay is part of the SafetyScreen44™ Panel, but can also be conducted solely. The entire SafetyScreen44™ Panel with all 44 targets was just conducted for the three compounds as shown in [0206], for the other molecules just the hERG inhibition was measured.

T1 sequence (Q12809 whole entry): as the sequence (Q12809 whole entry) above

Compound	effect on blood glucose concentration compared to control [2]	hERG inhibition [%] [3] [%]	toxicology (hits with over 50% inhibition) [9]	inhibition at 10 µM (μ-opioid (MOP) receptor) [%]	further results
COc1cc2c(cc1N1CC(N(C)C)C1)C[C@H]1C3CCCC[C@@]23CCN1C (stereo partly drawn) [Compound 35, 1-[(1S,9S)-4-methoxy-17-methyl-17-azatetracyclo[7.5.3.0^1,^10,0^2,^7]heptadeca-2(7),3,5-trien-5-yl]-N,N-dimethylazetidin-3-amine]	slightly positive effect				inhibition at 10 µM [1]: < 15%
COc1cc2c(cc1NC(=O)c1cncn1C)C[C@H]1C3CCCC[C@@]23CCN1C (stereo partly drawn) [Compound 7, N-[(1S,9S)-4-methoxy-17-methyl-17-azatetracyclo[7.5.3.0^1,^10,0^2,^7]heptadeca-2(7),3,5-trien-5-yl]-1-methyl-1H-imidazole-5-carboxamide]	significant effect	7.9			MOP inhibition [%] (μ-opioid (MOP) receptor): 33.7%; glucose-stimulated insulin secretion from mouse pancreatic islets (mouse pancreatic islets [4]): increases the glucose-stimulated insulin secretion; plasma insulin concentrations ([2]; mice, 30 min after i.p. administration together with glucose, FIG. 2): increases plasma insulin concentrations; glucose tolerance ([2]; mice, i.p. glucose tolerance test, 1.5 mg/g BW glucose, i.p. compound, FIG. 2): improves glucose tolerance; plasma insulin concentrations ([5]; 30 min after p.o. administration together with glucose): increases plasma insulin concentrations; glucose tolerance ([5]; oral glucose tolerance test, 1.5 mg/g BW glucose, p.o. compound): improves glucose tolerance; touch sensitivity during mechanical stimulation with Von Frey monofilaments [6]: reduces touch sensitivity; protection from cell death induced by oxidative stress (mouse pancreatic islets [7]): protects mouse pancreatic islets from cell death induced by oxidative stress; protection from streptozotocin-induced cell death (mouse pancreatic islets [8]): protects mouse pancreatic islets from streptozotocin-induced cell death
4-[(1S,9S)-4-methoxy-17-methyl-17-azatetracyclo[7.5.3.0^1,^10,0^2,^7]heptadeca-2(7),3,5-trien-5-yl]-1-methylpiperazin-2-one [Compound 36]	slightly positive effect				
Br.Br.COc1cc2c(cc1-n1ccnc1)C[C@H]1[C@H]3CCCC[C@@]23CCN1C [DXM-2, (9S, 13S, 14S)-2-(1H-Imidazol-1-yl)-3-methoxy-17-methyl morphinan dihydrobromide]		51.8	7	83.6	
COc1ccc2c(c1)[C@]13CCCC[C@@H]1[C@H](C2)N(C)CC3 [DXM, dextromethorphan]		20.9	6	85	

From patent US20250223262A1, “[…] OF […] REDUCED HERG ACTIVITY AND MOP BINDING” (Heinrich-Heine-Universität Düsseldorf, priority 2022, published 2025)
